Patent US9388215B2, “Compositions and methods of using islet neogenesis peptides and analogs thereof” (SHENZHEN HIGHTIDE BIOPHARMACEUTICAL, LTD., priority 2013, dated 2016)

Legend:
[1] = assay type: physicochemical; settings: pH 7.4
Protocol: Peptide stability in buffers was tested for INGAP-PP and selected analogs. 10 mg/mL of Peptide 1, Peptide 12, Peptide 16, Peptide 29 or Peptide 31 was dissolved in isotonic buffers with pH ranging from 4.0 to 8.0. […] Peptide 12 and Peptide 29 were stable in an isotonic phosphate buffer (pH 7.4) for more than 90 days at 4° C. (there was no sign of degradation at 90 days sample check point), and 60 days at 25° C.

[2] = Pharmacokinetics in SD rats after single subcutaneous dose (Example X); assay type: in vivo, rat; settings: sc, 25 mg/kg
Protocol: After 7 days acclimation, a total of 15 male Sprague-Dawley (SD) rats (body weight: 230 to 270 g) in good health from Sino-British SIPPR/BK Lab Animal Ltd, Shanghai, were used in the study. All peptides, Peptide 1, Peptide 12, Peptide 16, Peptide 29 or Peptide 31, were dissolved in sterile normal saline respectively to yield the desired final concentrations and were administered via single subcutaneous (sc) dose.
Three animals in each group were used for blood collection at the time point of 5 min, 15 min, 30 min, 1 h, 2 h, 4 h, 6 h, 8 h and 24 h post-dose. Blood samples (approximately 400 μL) were collected and placed into tubes containing EDTA-K2 (dipotassium ethylene diamine tetraacetic acid) and centrifuged at 8000 rpm for 6 minutes at 4° C. to separate plasma from the samples. The resulting plasma was stored frozen at −80° C. until being analyzed.
Plasma concentrations of peptides were determined using tandem mass spectrometry (LC-MS/MS) analysis. A non-compartmental module of WinNonlin® Professional 5.2 (Pharsight; St. Louis Mo.) was used to calculate PK parameters. AUC(0-t) represents area under the curve from the time of dosing to the time of the last observation, the AUC(0-∞) represents area under the curve from the time of dosing to infinity, and the Cmax represents maximum concentration detected.

[3] = Peptide stability in rat plasma; assay type: in vitro ADME; settings: 100 μg/mL, 37° C.; FIG. 12, 13
Protocol: (§1) The stability of peptides was also tested in rat, mouse and human plasma. Briefly, a certain amount of peptides and eucatropine powder (positive control) was accurately weighed. Test compounds were dissolved in 50% methanol-water solution and diluted to 20 mg/mL, and eucatropine was dissolved in dimethylsulfoxide (DMSO) and diluted to 10 mM, as a stock solution. Eucatropine stock solution was diluted to 0.2 mM with DMSO as a working solution. A stop reagent was prepared containing 200 ng/mL midazolam and tolbutamide in acetonitrile. A volume of 300 μL of stop solution was added to each well of a 96-well deep-well plate placed on ice beforehand.
(§2) For the stability studies, peptides and eucatropine were spiked into plasma respectively, mixed well, and then 100 μL of each mixture solution was transferred into the pre-cooled stop reagent as 0 time point sample. The remaining mixtures were incubated in a 37° C. water bath with shaking at 100 rpm (n=2). The final incubation concentration was 1 μM for eucatropine and 100 μg/mL for all test compounds.
(§3) At desired time points, 100 μL of incubation mixture was transferred to the stop reagent to precipitate proteins. Samples were vortexed and centrifuged at RCF 5000×g for 10 minutes, and supernatant was transferred to a test plate. The samples were analyzed by LC-MS/MS.
(§4) Slope was calculated by plotting the natural logarithm of the percentage of remaining amount of test compounds and time, and T1/2 was calculated in accordance with the following formula.
For stability in rat plasma, the incubation time was 0, 15, 30, 60 and 120 min for Peptide 1 and eucatropine, and 0, 15, 30, 60, 120, and 240 min for Peptide 12, Peptide 16, Peptide 29 and Peptide 31.
In another stability study in rat plasma, the incubation time was 0, 30, 60 120 and 240 min for Peptide 2, Peptide 52, Peptide 64 and eucatropine.

[4] = Peptide stability in human plasma; assay type: in vitro ADME; settings: 100 μg/mL, 37° C.; FIG. 4, 15
Protocol: as §1, with “in” for “in rat,”
as §2, with “[…]” for “1 μM”
as §3, §4
For stability in human plasma, the incubation time was 0, 30, 60 and 120 min for Peptide 1, Peptide 12, Peptide 16 and eucatropine.
as §1, with “A stop reagent was prepared containing 200 ng/mL midazolam and tolbutamide in acetonitrile. A volume of 300 μL of stop solution was added to each well of a 96-well deep-well plate placed on ice beforehand.” left out

[5] = Peptide stability in mouse plasma; assay type: in vitro ADME; settings: 100 μg/mL, 37° C.; FIG. 3, 5, 14
Protocol: as §1, with “in” for “in rat,”
as §2, with “[…]” for “1 μM”
as §3, §4
For stability in mouse plasma, the incubation time was 0, 5, 15, 30 and 60 min for Peptide 1 and eucatropine; 0, 15, 30, 60, 120, 240 and 480 min for Peptide 12, Peptide 16 and Peptide 29.
In another stability study in mouse plasma, the incubation time was 0, 30, 60 and 120 min for Peptide 2 and eucatropine; 0, 30, 60, 120, 240 and 960 min for Peptide 52 and Peptide 54.
as §1, §2
For stability in mouse plasma, the incubation time was 0, 15, 30, 60 and 120 min for Peptide 1 and eucatropine; 0, 15, 30, 60, 120, and 240 min for Peptide 31.

[6] = Peptide concentration in plasma and pancreas 30 min post dose; assay type: in vivo, rat; settings: male, Sprague-Dawley, rat, in vivo, sc, 25 mg/kg, Peptide concentration
Protocol: To further characterize the pharmacokinetic (PK) properties of peptides, peptide concentration in pancreas—the target organ, was determined 30 min post dose. Briefly, INGAP-PP (Peptide 1), Peptide 12, or Peptide 31 was dissolved in sterile normal saline and then was administered via subcutaneous (sc) bolus at the dose level of 25 mg/kg to male Sprague-Dawley (SD) rats. Five animals in each group were used for blood and pancreas collection at the time point of 30 min post-dose. Blood samples (approximately 400 μL) were collected and placed into tubes containing EDTA-K2 and centrifuged at 8000 rpm for 6 minutes at 4° C. to separate plasma from the samples. After blood extraction and animal sacrifice, the pancreas was removed immediately from each animal, cleared of fat and lymph nodes, weighed, and placed into 5 fold volume of ice cold sterile normal saline with protease inhibitor cocktail (Merck Millipore, catalogue #539137) to homogenize with a homogenizer.
The peptide concentration of the plasma and pancreatic homogenate was determined immediately using tandem mass spectrometry (LC-MS/MS) analysis and the results are presented in Table 8.

[7] = Pharmacokinetics in rat, subcutaneous bolus (Example VII); assay type: in vivo; settings: male, Sprague-Dawley, rat, in vivo, sc, 25 mg/kg
Protocol: (§5) After 7 days acclimation, male Sprague-Dawley (SD) rats weighing 210-250 g, or male C57BL/6 mice, weighing 19-24 g, in good health were used in the study. Peptide 1, Peptide 12 and Peptide 16 were dissolved in sterile normal saline and then they were injected via subcutaneous (sc) bolus or intravenous (iv) bolus at the dose level of 25 mg/kg. Three animals in each group were used for blood collection at the time point of 5 min, 15 min, 30 min, 1 h, 2 h, 4 h, 6 h, 8 h and 24 h post-dose. Blood samples (approximately 400 μL) were collected and placed into tubes containing EDTA-K2 and centrifuged at 8000 rpm for 6 minutes at 4° C. to separate plasma from the samples. The resulting plasma was stored frozen at −80° C. until being analyzed. Plasma concentrations of peptides were determined using tandem mass spectrometry (LC-MS/MS) analysis. A non-compartmental module of WinNonlin® Professional 5.2 (Pharsight; St. Louis Mo.), was used to calculate PK parameters. The abbreviation AUC(0-t) represents area under the curve from the time of dosing to the time of the last observation, the AUC(0-∞) represents area under the curve from the time of dosing to infinity, and the Cmax represents maximum concentration detected.

[8] = Pharmacokinetics in rat, intravenous bolus; assay type: in vivo; settings: male, Sprague-Dawley, rat, in vivo, iv, 25 mg/kg
Protocol: as §5

normal C57BL/6J mice = test: Induction of extra islet insulin positive β cell clusters (EIC) in normal C57BL/6J mice; assay type: in vivo, mouse; settings: analog 5 mg/kg vs INGAP-PP 50 mg/kg, 10 days
Protocol: After a 1-week acclimation, female C57BL/6J mice were randomly divided into 6 groups (n=5 per group). The control group received 10 mL/kg sterile normal saline via subcutaneous injection for 10 consecutive days. The other five groups received INGAP-PP (Peptide 1) or INGAP-PP analogs Peptide 12, Peptide 16, Peptide 29 or Peptide 31 at a dose of 50 mg/kg or 5 mg/kg per day, respectively, for the same period. On day 11, the pancreas was removed from each animal, cleared of fat and lymph nodes, weighed, and fixed in 10% neutral buffered formalin (NBF) for no longer than 24 hours before processing for morphometric analysis.
Immunohistochemistry analysis was used to assess the islet neogenic activities of peptides by measuring the number and area of extra islet insulin positive β cell clusters (EIC) of pancreatic tissues harvested from each individual group post 10 day treatment. EIC is indicative of islet neogenesis, as previously described by Lipsett and Finegood (Diabetes 51:1834-1841 (2002)).

[9] = Pharmacokinetics in mouse, subcutaneous bolus; assay type: in vivo; settings: male, C57BL/6, mouse, in vivo, sc, 25 mg/kg
Protocol: as §5

pancreatic islets = test: Glucose-stimulated insulin secretion (GSIS) of isolated islets; assay type: cell-based, rat; settings: 12.0 mM glucose; 10 μg/mL peptide or 100 nM GLP-1; 60 min; FIG. 8
Protocol: The pancreases were procured from male adult Sprague-Dawley (SD) rats. After 7 days acclimation, the animals were sacrificed by cervical dislocation and the entire pancreas was removed and digested with collagenase to isolate islets. After digestion, islets were maintained at 37° C. in RPMI 1640 (Carlsbad Calif., USA) pH 7.4, containing 10% (v/v) fetal calf serum, 1% penicillin/streptomycin, and 10 mM glucose in a humid atmosphere (5% CO2/95% O2), without the addition of any compound (control), or with the addition of 100 nM glucagon like peptide-1 (GLP-1); or 10 μg/mL Peptide 1, Peptide 12, or Peptide 16, as summarized in Table 4 below. Cultured islets were rinsed in Krebs-Ringer bicarbonate buffer (KRB), pH 7.4, previously gassed with a mixture of CO2/O2 (5/95%), and pre-incubated in 1.0 ml of KRB containing 0.5% (w/v) BSA and 1.5 mM glucose at 37° C. for 45 min. After this period, groups of 5 islets were incubated in 0.6 ml KRB with the addition of 1.5 or 12.0 mM glucose, with or without the addition of peptides for 60 min. At the end of the incubation period, aliquots of the medium were collected for insulin quantitation.

[10] = male, Sprague-Dawley, rat, in vivo

In the case of “Ac-IGLHDPSHGTLPAGS-NH2 [Peptide 29, Ac-IGLHDPSHGTLPAGS-NH2]”, the “time stable in isotonic phosphate buffer (pH 7.4) at 4° C.” value [1] is reported as “more than 90 days”, the “time stable in isotonic phosphate buffer (pH 7.4) at 25° C.” value [1] is reported as 60 days and the AUC(0-t) ([2]; plasma, male Sprague-Dawley rat, subcutaneous, read-out: AUC(0-t)) is reported as 14.4 ± 1.01 µg·h/mL. For the same substance, the AUC(0-inf) ([2]; plasma, male Sprague-Dawley rat, subcutaneous, read-out: AUC(0-∞)) was 14.4 ± 1 µg·h/mL, the Cmax ([2]; plasma, male Sprague-Dawley rat, subcutaneous, read-out: Cmax) was 16.3 ± 2.52 µg/mL and the “stability in rat plasma” value [3] was “exhibited good stability in rat plasma and were more stable than INGAP-PP”. For the same substance, the “stability in human plasma” value [4] was “exhibited good stability in human plasma and were significantly more stable than INGAP-PP” and the “stability in mouse plasma” value [5] was “exhibited good stability in mouse plasma and were more stable than INGAP-PP”.

For “Ac-IGLHDPSHGTLPAGS-OH [Peptide 12, Ac-IGLHDPSHGTLPAGS-OH]”, the level at 0.5 h ([6]; Pancreas) was 0.877 ± 0.261 µg/mL, the level at 0.5 h ([6]; Plasma) was 5.37 ± 0.981 µg/mL and the AUC(0-inf) [7] was 8.48 µg·h/mL. For the same substance, the AUC(0-t) [7] was 8.42 µg·h/mL, the Cmax [7] was 14 µg/mL and the “time stable in isotonic phosphate buffer (pH 7.4) at 4° C.” value [1] was “more than 90 days”. For the same substance, the “time stable in isotonic phosphate buffer (pH 7.4) at 25° C.” value [1] was 60 days, the AUC(0-inf) [8] was 12.6 µg·h/mL and the AUC(0-t) [8] was 12.6 µg·h/mL. It also gave a Cmax [8] of 44.3 µg/mL, an AUC(0-inf) [2, 10] of 11.2 ± 1.21 µg·h/mL and an AUC(0-t) [2, 10] of 11.1 ± 1.37 µg·h/mL. The Cmax [2, 10] was 21.4 ± 1.35 µg/mL, the “islet neogenesis efficacy relative to INGAP-PP” value (normal C57BL/6J mice) was “comparable or improved efficacy was achieved at a dose one tenth of INGAP-PP” and the AUC(0-inf) [9] was 5.89 µg·h/mL. The AUC(0-t) [9] was 5.87 µg·h/mL, the Cmax [9] was 11.6 µg/mL and the “glucose-stimulated insulin release vs islets without peptide” value (pancreatic islets) was “released significantly more insulin than those cultured without the addition of peptides”.
